Data reported in US20240366540A1, “MITOFUSIN INHIBITORS AND USES THEREOF” (Albert Einstein College of Medicine, priority 2021, published 2024).

Columns and labels:
[1] = system: MEFs; assay: Mitochondrial depolarization assay (TMRE membrane potential); format: cell-based, mouse
Method: Mitochondrial depolarization assay (mtΔΨ). MEFs (10^4 cells/well) were seeded in a 96-well black plate and treated with MASM7 or MFI8 for 6 hrs. Following treatments, cells were stained with 250 nM TMRE (Sigma; Cat. 87917) for 20 min at 37° C. Subsequently, cells were washed with thrice with PBS. Fluorescence intensity was detected by a M100 microplate reader (TECAN, Ex: 540 nm/Em: 579 nm).

[2] = system: MV-411 cells; assay: Cell viability, leukemia cells; format: cell-based; settings: MV-411, 72 hr, Cell titer Glo
Method: (§1) Cell titer Glo was used to measure viability. Cells were treated with MFI8 for 72 hr (n=3, mean±SD).
(§2) Cell viability assay. Cells (5×10^3 cells/well) were seeded in a 96-well white plate and treated with serial dilutions of MASM7 or MFI8. Cell viability was assayed after 72 hrs by addition of CellTiter-Glo reagent according to the manufacturer's protocol (Promega). Luminescence was measured using a F200 PRO microplate reader (TECAN). Viability assays were performed in at least triplicate and the data normalized to vehicle-treated control wells. Dilutions of MASM7 or MFI8 were performed using a TECAN D300e Digital Dispenser from 10 mM stocks.

[3] = system: MOLM13 cells; assay: Cell viability, leukemia cells; format: cell-based; settings: MOLM13, 72 hr, Cell titer Glo
Method: as §1, §2

[4] = system: MEFs; assay: Metabolomics (TCA cycle carboxylic acids, NAD, NADH); format: cell-based, mouse; settings: UPLC-MRM/MS
Method: Metabolomics. […] Cells were harvested using a cell scraper and centrifuged at 1200 rpm in 4° C. for 3 min. Each cell pellet sample was suspended into 250 to 700 μL of 80% aqueous methanol in an Eppendorf tube. The samples were vortex mixed for 15 s and sonicated in an ice-water bath for 5 min, followed by centrifugal clarification at 15,000 rpm and 5° C. in an Eppendorf […] centrifuge. The clear supernatants were collected. A standard stock solution of TCA cycle carboxylic acids, NAD and NADH was prepared in 80% methanol as S1. This standard solution S1 was serially diluted 1 to 4 (v/v) with the same solvent to make standard solutions S2 to S10. 20 μL of each standard solution and an aliquot of the clear supernatant from each cell was mixed with 20 μL of an internal standard solution containing 9 ^13C- or deuterium labeled analogues of the TCA cycle carboxylic acids (except isocitric acid), 20 μL of 200 mM 3-NPH solution and 20 μL of 150 mM of EDC solution. The mixtures were allowed to react at 30° C. for 30 min. After reaction, 120 μL of water was added to each solution. 10 μL of the resultant solutions was injected into a C18 UPLC column to quantitate the TCA cycle carboxylic acids by UPLC-MRM/MS with (-) ion detection, according to the procedure we described in a publication.

[5] = system: U2OS cells; assay: Cell death with BV6 in U2OS cells; format: cell-based
Method: Cell death assay. Cells (2×10^5 cells/well) were seeded in a 6-well plate and treated with the indicated drugs for 6 hours. Cells were dissociated using Accutase (Thermo Fisher; Cat. #00-4555-56) in order to avoid accidental exposure of phosphatidylserine on the outer plasma membrane. Cell death was evaluated with Dead Cell Apoptosis Kit with Annexin V Alexa Fluor™ 488 & Propidium Iodide (Thermo Fisher; Cat. #V13241) according to manufacturer's protocol. Data was acquired by BD LSRII flow cytometer system using BD FACSDiva software. Data was analyzed by FlowJo (BD).

[6] = system: H508 cells; assay: Cell viability, colon cancer cells; format: cell-based; settings: H508, 72 hr, Cell titer Glo
Method: as §1, §2

[7] = system: HT29 cells; assay: Cell viability, colon cancer cells; format: cell-based; settings: HT29, 72 hr, Cell titer Glo
Method: as §1, §2

[8] = system: U2OS cells; assay: Mitochondrial fusion in U2OS cells
[9] = system: cells; assay: Cell viability assay (CellTiter-Glo); format: cell-based; settings: 72 hours
Method: Cell viability assay. […] Cell viability was assayed after 72 hrs by addition of CellTiter-Glo reagent according to the manufacturer's protocol (Promega). Luminescence was measured using a […] microplate reader (TECAN). Viability assays were performed in at least triplicate and the data normalized to vehicle-treated control wells.

[10] = system: U2OS cells; assay: DNA damage, yH2AX immunofluorescence in U2OS; format: cell-based
Method: Immunofluorescent analysis and microscopy. Cells were treated with MASM7, MFI8 and or Q-VD-OPh at ˜70% confluence for 6 h. After treatments, cells were washed with PBS and fixed with 4% PFA for 15 min. Then cells were permeabilized with 0.1% Triton X-100 in PBS for 10 min. Cells were blocked with 5% BSA in PBS-T and incubated overnight with primary antibodies as indicated; yH2AX (Sigma; 05-636, 1:100 dilution). After incubation with primary antibodies, cells were washed with PBS and incubated with the appropriate mouse secondary antibody (ThermoFisher Scientific; A-11001) in the blocking solution. After PBS washes, coverslips were dipped in water and mounted on glass slides using Vectashield containing DAPI (Vector laboratories). […] Data were analyzed with ImageJ.

[11] = system: MFN1 and MFN2; assay: MFN1 and MFN2 gene expression and protein levels; format: cell-based
Method: Western blot. Western blots were performed from whole cell lysates (WCL) prepared in lysis buffer containing 50 mM Tris-HCl pH 7.5, 1% Triton X-100, 150 mM NaCl, 5 mM MgCl2, 1 mM EGTA and 10% glycerol in the presence of protease inhibitor cocktail (Roche).
Analysis of mitochondrial biogenesis-related genes by q-PCR. Total RNA was extracted by using RNeasy Mini Kit (Qiagen) followed by cDNA synthesis using the SuperScript IV VILO Master Mix (Thermo Scientific), both performed according to the manufacturer's protocol. q-PCR was performed using the following primers: […]
For the q-PCR reaction, Power SYBR Green master mix (Thermo Scientific) was used according to the manufacturer's instructions. Briefly, each reaction consisted of 10 ng cDNA, 5 μL Power SYBR Green master mix, 200 nM primers (forward and reverse), and RNase-free water up to 10 μL. q-PCR was performed on the ViiA 7 Real-Time PCR System (Thermo Scientific) with the following cycle parameter: 95° C. for 10 min, 40 cycles of 95° C. for 15 s, and 60° C. for 1 min. q-PCR products were analyzed by melting curves for unspecific products or primer dimer formation. Rpl39 was used as housekeeping gene and 2^−ΔΔCT method was applied to determine the relative mRNAs expression.

`Cc1cccc(NC(C)c2cc(Cl)ccc2O)c1C` (centres unmarked) [MFI8, 4-Chloro-2-(1-((2,3-dimethylphenyl)amino)ethyl)phenol] was tested, and the “mitochondrial membrane potential (TMRE)” value ([1]; MFN1/MFN2 DKO MEFs reconstituted with L692A MFN2) was “not when reconstituted with L692A MFN2”, the “mitochondrial membrane potential (TMRE)” value ([1]; MFN1/MFN2 DKO MEFs reconstituted with WT MFN2) was “significantly decreased mitochondrial membrane potential” and the “mitochondrial membrane potential (TMRE)” value ([1]; WT MEFs, 6 hrs) was “concentration responsively decreased mitochondrial membrane potential”. The viability [2] was “concentration responsively reduces viability”, the viability [3] was “concentration responsively reduces viability” and the “metabolites of the TCA cycle” value [4] was “markedly reduced several metabolites such as malate, oxaloacetate, and α-ketoglutarate”. For the same compound, the “cell death in combination with BV6” value [5] was “synergistically induce cell death”, the viability [6] was “concentration responsively reduces viability” and the viability [7] was “concentration responsively reduces viability”. The mitochondrial fusion [8] was “inhibited mitochondrial fusion”, the cellular viability [9] was “neither MFI8 nor MASM7 decreased cellular viability” and the “DNA damage (yH2AX)” value ([10]; U2OS cells) was “induced DNA damage in U2OS cells”. For the same compound, the “DNA damage (yH2AX)” value ([10]; U2OS, co-treatment with pan-caspase inhibitor Q-VD-OPh) was “abolished the capacity of the latter to induce DNA damage” and the “MFN1 and MFN2 gene expression and corresponding protein levels” value [11] was “neither MASM7 nor MFI8 altered”.
